Measurements: patent publication US20250137032A1, “TWO-COMPONENT SYSTEMS FOR USE IN CELL-FREE GENE EXPRESSION” (priority 2023, published 2025)
“Also recorded” adds a separate entry of the source. Where a name gives a salt, the structure may show the parent alone.

Assays:
NarX-RssA = biological target: T1, NarX-RssA (Serratia marcescens, UniProt Q8GP19); experiment: Cell-free iron-sensing NarX chimera, luciferase reporter; type: biochemical
T1 construct: All genes were; made in house; host or cells: cell-free expression in situ, myTXTL E. coli extract, with DMPC, POPC or DOPC vesicles

[1] = Dynamic light scattering of 100% POPC vesicles in the presence of ligands (liposome stability); type: physicochemical
NarX [2] = biological target: T2, NarX (Escherichia coli, UniProt P0AFA2, T450I/V366A); experiment: Lyophilized NarX-L reactions rehydrated in non-ideal media; type: biochemical, E. coli; conditions: 100 μM nitrate; rehydrated with Milli-Q water, lake water or FBS; 30° C.
T2 construct: All genes were; made in house; host or cells: cell-free expression in situ, myTXTL E. coli extract (Arbor Biosciences), with synthetic lipid vesicles
T2 sequence (P0AFA2 other isoform, or with tags, fused parts or gaps V366A/T450I): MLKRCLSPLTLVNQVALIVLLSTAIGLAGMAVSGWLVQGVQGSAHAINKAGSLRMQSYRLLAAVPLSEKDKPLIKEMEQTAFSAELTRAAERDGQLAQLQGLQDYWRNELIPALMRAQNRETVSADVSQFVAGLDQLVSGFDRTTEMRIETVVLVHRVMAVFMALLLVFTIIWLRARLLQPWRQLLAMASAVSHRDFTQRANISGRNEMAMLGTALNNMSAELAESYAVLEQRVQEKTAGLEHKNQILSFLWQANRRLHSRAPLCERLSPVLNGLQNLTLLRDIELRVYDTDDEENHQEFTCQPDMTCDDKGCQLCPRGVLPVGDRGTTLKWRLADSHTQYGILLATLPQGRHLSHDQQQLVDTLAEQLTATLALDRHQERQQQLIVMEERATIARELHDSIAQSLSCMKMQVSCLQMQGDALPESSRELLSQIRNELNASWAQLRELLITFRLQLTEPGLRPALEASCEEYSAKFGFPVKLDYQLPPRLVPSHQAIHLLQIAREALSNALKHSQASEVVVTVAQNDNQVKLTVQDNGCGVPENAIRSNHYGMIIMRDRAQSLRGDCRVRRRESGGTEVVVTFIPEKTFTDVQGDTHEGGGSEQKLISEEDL
Protocol: As a control, we flash froze reactions and allowed them to proceed without lyophilization. […] To remediate this, we lyophilized vesicles and reactions separately. When rehydrating reactions, we rehydrated vesicles with water and then mixed the rehydrated vesicles, lyophilized cell-free components, and rehydration media (water, lake water, or FBS) with or without 100 μM nitrate. We then allowed reactions to proceed at 30° C. […] To deploy biosensors out of the lab, one must understand how quickly they are able to sense a ligand. […] We furthermore envision that these systems could be leveraged to engineer targeted drug delivery systems or for point-of-use biosensing.
Cell-free reactions were prepared as above, omitting vesicles and ligand. Reactions and vesicles were then flash frozen and lyophilized overnight. Following lyophilization, vesicles were rehydrated in water and cell free reactions were rehydrated in various media, such as Mili-Q water, Lake Water from Lake Michigan, and 50% FBS containing either 100 μM nitrate or an equivalent volume of water. Vesicles and reactions were allowed to rehydrate for 30 minutes on ice. Finally, vesicles were added to each reaction to bring the total volume to 5 μL and reactions were allowed to proceed at 30° C. for 16 hours.

[3] = system: cell-free protein synthesis; experiment: Cell-free protein synthesis (myTXTL): NarX western blot band intensity and luminescence; type: biochemical, E. coli; conditions: increasing ligand concentration, NarX band intensity / luminescence (FIG. 7, FIG. 14)
Protocol: (§1) Protein expression was performed using the myTxTl system (Arbor Biosceinces). 5 μL reactions were assembled with 10 mM lipid, 0.1 nM plasmid encoding T7 RNA polymerase, 9.9 nM plasmids encoding NarX, NarL, and reporter gene (nano luciferase or GFP) in specified ratios, and various concentration of ligands. Cell-free reactions were allowed to progress at 30° C. for 16 hours. Luciferase luminescence was read using the NanoGlo luciferase system and GFP fluorescence (ex. 480 nm, em. 507 nm) was read using a Molecular Devices Spectra Max i3 plate reader. To calculate fold change, luminescence values in the presence of nitrate were divided by the luminescence values in the absence of nitrate for each replicate.
1 μL of cell-free reaction was diluted to 15 μL in Laemlli buffer and heated at 95° C. for 10 minutes. Samples were then loaded and run on a 12% Mini-PROTEAN TGX Precast Protein Gel (Bio-Rad) at 150 V for 90 minutes. Wet transfer was performed onto a PVDF membrane (Bio-Rad) for 45 min at 100 V. Membranes were then blocked for an hour at room temperature in 5% milk in TBST (pH 7.6:50 mM Tris, 150 mM NaCl, HCl to pH 7.6, 0.1% Tween) and incubated for 1 hour at room temperature or overnight at 4° C. with primary solution (anti-Flag (Sigma F1804) or anti-Myc (ab32), diluted 1:1000 in 5% milk in TBST). Primary antibody solution was decanted, and the membrane was washed three times for 5 minutes in TBST and then incubated in secondary solution at room temperature for 1 hour (HRP-anti-Mouse (CST 7076) diluted 1:3000 in 5% milk in TBST). Membranes were then washed in TBST and incubated with Clarity Western ECL Substrate (Bio-Rad) for 5 min. Blots were imaged using an Azure Biosystems c280 imager and band intensities were quantified with ImageJ.

NarX [4] = biological target: T2, NarX; experiment: Cell-free NarX-L nitrate sensing, nanoluciferase reporter luminescence; type: biochemical, E. coli
Excerpt: As a first step towards understanding how TCSs can be integrated into cell-free systems, we tested the functional expression of NarX and NarL. The analyte for this sensor, nitrate, is a known ground water contaminate (30), serves as a convenient input, and previous work has characterized and engineered NarL mutants and its cognate promoter (26), ensuring that downstream gene transcription is a result of cell-free expressed NarL. We assembled cell-free reactions containing the myTXTL system (31), three DNA templates, liposomes, and assessed the reactions in response to nitrate addition. Two templates contained genes for either NarX or a NarL mutant (26) under the control of T7 RNA polymerase. The third template served as a genetic reporter for TCS signaling and contained a reporter gene (nanoluciferase) under the control of a promoter to which NarL binds (32). Finally, we included 100 nm lipid vesicles composed of 1,2-dimyristoyl-sn-glycero-3-phosphocholine (DMPC) into which NarX could integrate (FIG. 1A). Upon addition of nitrate, NarX should phosphorylate NarL, which should then bind the reporter plasmid and induce downstream luciferase expression (FIG. 1A).
as §1

NarX [5] = biological target: T2, NarX; experiment: Cell-free NarX-L system encapsulated in giant unilamellar vesicles; type: biochemical, E. coli; conditions: 1 mM nitrate, GUVs of POPC:cholesterol with rhodamine lipid, 30° C. 16 hours, with RNase
Excerpt: Over the last decade, many promising cell-free systems have been developed, enabling the delivery and sensing of a wide array of ligands in non-ideal environments. Cell-free systems have been encapsulated and administered to mice (47), lyophilized and used in resource limited settings (6, 7), and integrated into wearable materials to sense environmental contaminants (8). Towards the goal of creating cell-mimetic particles which can sense environmental stimuli in complex environments, such as the body, we encapsulated our cell-free system into giant unilamellar vesicles using the emulsion transfer method (FIG. 5A). We encapsulated cell-free extract containing plasmids encoding NarX, NarL, and the downstream protein (luciferase or mEGFP) into membranes composed of 1 POPC: 1 cholesterol and a rhodamine conjugated lipid. We hypothesized that by encapsulating cell-free reaction components into vesicles, NarX could insert into membranes and initiate signaling in response to exogenously added nitrate. […]
For samples containing the luciferase plasmid, 0.5 μL of NanoGlo Luciferase substrate was added to the reaction, and reactions were read on a Molecular Devices Spectra Max i3 plate reader. […] Images were analyzed using the Nikon NIS software.

NarX-VanS Chimera = experiment: Cell-free vancomycin-sensing NarX chimera, luciferase reporter; type: biochemical, Enterococcus faecium
[6] = plasmid concentrations which enabled functional NarX sensing
[7] = reporter plasmid reduced by 90%, DMPC, POPC, DOPC vesicles
[8] = 100% POPC vesicles in the presence of 100 μM ligand
[9] = 100% POPC vesicles in the presence of 1 mM ligand

## [Cl][Fe]([Cl])[Cl] [Iron, iron (III) chloride anhydrous]
NarX-RssA; [6]
  sensor response to ligand (gene expression): no gene expression was observed
NarX-RssA; [7]
  sensor response to ligand (luciferase expression): functional sensors
[1]; [8]
  Diameter (nm): 118.62 nm
  P.D.I.: 0.135

## O=[N+]([O-])[O-].[Na+] [Nitrate, sodium nitrate]
NarX [2]
  sensing of nitrate after lyophilization and rehydration: could sense 100 μM nitrate in all conditions
[3]
  effect on cell-free protein expression: inhibit protein synthesis; also recorded: inhibits protein expression
NarX [4]; absence of vesicles (FIG. 1C)
  increase in luminescence in nitrate titration: 2 fold
NarX [4]; all components present, DMPC vesicles (FIG. 1B)
  increase in luminescence compared to reactions run in the absence of nitrate: ~3 fold
NarX [4]; nitrate sample vs water sample, p<0.03, n=2 (FIG. 18)
  time to differentiate a positive from a negative signal (luminescence over time): 6.5 h
NarX [4]; nitrate titration
  nitrate concentration at which the cell-free system lost sensitivity: 10 mM
NarX [4]; nitrate titration, cell-free system
  detection of nitrate at levels as low as: 10 µM
NarX [4]; wild-type NarX, nitrate vs nickel (FIG. 4F)
  specificity of activation by ligand: specifically turn ‘on’
NarX [5]
  sensing of exogenously added nitrate by encapsulated sensor (microscopy and bulk plate reader): able to sense exogenous nitrate
[1]; [9]
  Diameter (nm): 123.26 nm
  P.D.I.: 0.278

## CN[C@H](CC(C)C)C(=O)N[C@H]1C(=O)N[C@@H](CC(N)=O)C(=O)N[C@H]2C(=O)N[C@H]3C(=O)N[C@H](C(=O)N[C@H](C(=O)O)c4cc(O)cc(O)c4-c4cc3ccc4O)[C@H](O)c3ccc(c(Cl)c3)Oc3cc2cc(c3O[C@@H]2O[C@H](CO)[C@@H](O)[C@H](O)[C@H]2O[C@H]2C[C@](C)(N)[C@H](O)[C@H](C)O2)Oc2ccc(cc2Cl)[C@H]1O [Vancomycin, vancomycin hydrochloride]
NarX-VanS Chimera; [6]
  sensor response to ligand (gene expression): no gene expression was observed
NarX-VanS Chimera; [7]
  sensor response to ligand (luciferase expression): did not induce an increase in luciferase expression
[1]; [9]
  Diameter (nm): 124.88 nm
  P.D.I.: 0.189

## O.O.O.O.O.O=S(=O)([O-])[O-].[Cu+2] [copper, copper (II) sulfate pentahydrate]
[3]
  effect on cell-free protein expression: inhibited cell-free protein expression
[3]; listed as Copper
  effect on cell-free protein expression: inhibits cell-free protein synthesis
